Experiment: Inhibition of recombinant human Inositol 3,4,5,6 tetrakisphosphate 1-kinase using [3H]Ins(3,4,5,6)[…] as substrate

IC50 [µM]	SMILES
~9	O=P(O)(O)O[C@H]1[C@H](O)[C@@H](O)[C@H](OP(=O)(O)O)[C@H](OP(=O)(O)O)[C@@H]1O
~4	O=P(O)(O)O[C@H]1[C@H](O)[C@@H](O)[C@H](OP(=O)(O)O)[C@@H](OP(=O)(O)O)[C@H]1O
≥ 300	O=P(O)(O)O[C@@H]1[C@@H](O)[C@H](O)[C@@H](OP(=O)(O)O)[C@@H](OP(=O)(O)O)[C@H]1O

— ChEMBL document CHEMBL1133807, “Regiospecific phosphohydrolases from Dictyostelium as tools for the chemoenzymatic synthesis of the enantiomers D-myo-inositol 1,2,4-trisphosphate and D-myo-inositol 2,3,6-trisphosphate: non-physiological, potential analogues of biologically active D-myo-inositol 1,3,4-trisphosphate” (Bioorg Med Chem Lett, 2001)
